Results as given in patent US9107415B2, “2-(substituted-phenyl)-cyclopentane-1,3-dione compounds, and derivatives thereof” (Syngenta Limited, priority 2011, dated 2015).

Experiments:
Format in all cases: in vivo
[1] = system: Alopecurus myosuroides (ALOMY); assay: Biological Example 1 glasshouse screen, pre-emergence herbicidal activity; conditions: 312 h, application rate 250 g/ha, evaluated after 13 days, read-out: ALOMY percentage phytotoxicity
Procedure, shortened: (§1)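 Thirteen days after spraying, each species was given a visual phytotoxicity score (100% = total damage; 0% = none). Application was made one day post-sowing for pre-emergence and after 8 days' cultivation for post-emergence; conditions 24/16°C, 14 h photoperiod, 65% humidity.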

[2] = system: Echinochloa crus-galli (ECHCG); assay: as above; conditions: 312 h, application rate 250 g/ha, evaluated after 13 days, read-out: ECHCG percentage phytotoxicity
Procedure, shortened: as §1

[3] = system: Alopecurus myosuroides (ALOMY); assay: Biological Example 1 glasshouse screen, post-emergence herbicidal activity; conditions: 312 h, application rate 250 g/ha, evaluated after 13 days, read-out: ALOMY percentage phytotoxicity
Procedure, shortened: as §1

[4] = system: Echinochloa crus-galli (ECHCG); assay: as above; conditions: 312 h, application rate 250 g/ha, evaluated after 13 days, read-out: ECHCG percentage phytotoxicity
Procedure, shortened: as §1

[5] = system: Lolium multiflorum (LOLMU); assay: Biological Example 4B (not-previously-formulated compounds) post-emergence herbicidal activity on grassy weeds; conditions: 14 DAA, technical compound in IF50 + Adigor, mean of two
Method: (§2) Seeds of a variety of test species are sown in standard soil in pots. After cultivation for 14 days under controlled conditions in a glasshouse (at 22/16°C., day/night; 16 hours light; 65% humidity), the plants are sprayed with an aqueous spray solution derived from the formulation of the technical active ingredient dissolved in acetone plus IF50 containing
(§3) 10.56 wt % Emulsogen™EL (castor oil ethoxylate, CAS Registry number 61791-12-6)
(§4) 42.22 wt % N-Methyl pyrrolidone
(§5) 42.22 wt % dipropylene glycol monoethyl ether
(§6) at a 1:20 ratio of (technical active ingredient:IF50). The adjuvant Adigor™(an adjuvant containing inter alia methylated rapeseed oil, e.g. available from Syngenta) is added to form a 0.5% v/v solution. The test plants are then grown on under controlled conditions in the glasshouse (at 22/16°C., day/night; 16 hours light; 65% humidity) and are watered twice daily. After 14 days the test is evaluated (100%=total damage to plant; 0%=no damage to plant).
Post-emergence herbicidal activity (phytotoxicity) data, on certain grassy monocotyledonous weeds and cereal crops in a glasshouse, are measured 14 days after application of the herbicide (14 DAA), for (a) a […] the same time as the herbicide, and (b) for a post-emergence application rate of 30 g/ha of the test herbicide with 50 g/ha of cloquintocet-mexyl safener applied at substantially the same time as the herbicide. Herbicidal activity (phytotoxicity) is evaluated visually, and an assessed percentage phytotoxicity score is given for each herbicidal application on each plant species (with 100%=total damage to plant; 0%=no damage to plant). Two repetitions are made for each experiment, and the mean herbicidal activity (phytotoxicity) data is reported.
Test plants: Avena fatua (AVEFA), Lolium multiflorum (LOLMU), Setaria viridis (SETVI), Poa annua (POAAN), Alopecurus myosuroides (ALOMY). All five of these are grassy monocotyledonous weeds.

[6] = system: Echinochloa crus galli, barnyardgrass (ECHCG); assay: Biological Example 3 glasshouse screen, post-emergence herbicidal activity; conditions: 360 h, 15 DAA, no safener, read-out: ECHCG percentage phytotoxicity; for pest or weed control at 30 g/ha: application rate 30 g/ha; for pest or weed control at 60 g/ha: application rate 60 g/ha
Procedure, shortened: (§7)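 Plants grown 12 days in glasshouse pots (24/18°C or 20/16°C day/night, 16 h light, 65% humidity), then sprayed with active ingredient in acetone plus IF50 (1:20) in water with 0.2% v/v X-77. No safener used. Visual % phytotoxicity (100% = total damage) scored 15 DAA.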

[7] = system: Avena fatua, wild oats (AVEFA); assay: as above; conditions: 360 h, 15 DAA, no safener, read-out: AVEFA percentage phytotoxicity; for pest or weed control at 30 g/ha: application rate 30 g/ha; for pest or weed control at 60 g/ha: application rate 60 g/ha
Procedure, shortened: as §7

[8] = system: Avena fatua (AVEFA); assay: Biological Example 1 glasshouse screen, pre-emergence herbicidal activity; conditions: 312 h, application rate 250 g/ha, evaluated after 13 days, read-out: AVEFA percentage phytotoxicity
Procedure, shortened: (§8)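 Pots in a glasshouse (24/16°C day/night, 14 h light, 65% humidity) were sprayed one day after sowing (pre-emergence) or after 8 days (post-emergence), using acetone/water (50:50) with 0.5% Tween 20. Phytotoxicity was scored visually as % damage (0-100) 13 days after application.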

[9] = system: Lolium perenne (LOLPE); assay: as above; conditions: 312 h, application rate 250 g/ha, evaluated after 13 days, read-out: LOLPE percentage phytotoxicity
Procedure, shortened: as §8

[10] = system: Winter Wheat “Hereward”; assay: Biological Example 4B post-emergence phytotoxicity on cereal crops; conditions: 14 DAA, technical compound in IF50 + Adigor, mean of two
Method: as §2, §3, §4, §5, §6
[…] Herbicidal activity (phytotoxicity) is evaluated visually, and an assessed percentage phytotoxicity score is given for each herbicidal application on each plant species (with 100%=total damage to plant; 0%=no damage to plant). Two repetitions are made for each experiment, and the mean herbicidal activity (phytotoxicity) data is reported.

[11] = 30 g/ha, cloquintocet-mexyl 50 g/ha
[12] = 60 g/ha, cloquintocet-mexyl 0 g/ha
[13] = 60 g/ha, cloquintocet-mexyl 50 g/ha
[14] = 15 g/ha, cloquintocet-mexyl 50 g/ha

SMILES	pest or weed control at 250 g/ha [1]	pest or weed control at 250 g/ha [2]	pest or weed control at 250 g/ha [3]	pest or weed control at 250 g/ha [4]	LOLMU % phytotoxicity [5, 11]	LOLMU % phytotoxicity [5, 12]	LOLMU % phytotoxicity [5, 13]	pest or weed control at 30 g/ha [6]	pest or weed control at 30 g/ha [7]	pest or weed control at 250 g/ha [8]	pest or weed control at 250 g/ha [9]	Winter Wheat “Hereward” phytotoxicity (%) [10, 11]	Winter Wheat “Hereward” phytotoxicity (%) [10, 12]	Winter Wheat “Hereward” phytotoxicity (%) [10, 13]	pest or weed control at 60 g/ha [6]	pest or weed control at 60 g/ha [7]	LOLMU % phytotoxicity [5, 14]	pest or weed control at 15 g/ha ([6]; application rate 15 g/ha)	pest or weed control at 15 g/ha ([7]; application rate 15 g/ha)	Winter Wheat “Hereward” phytotoxicity (%) [10, 14]
CC#Cc1cc(C)c(C2=C(O)CC(Cc3ccc(C)cn3)C2=O)c(C)c1 (stereo not shown) [Compound A-8]	100%	100%	100%	100%	68%	92%	94%	70%	70%	100%	100%	13%	63%	45%	–	–	–	–	–	–
CC#Cc1cc(C)c(C2=C(O)CC(Cc3ccc(F)cn3)C2=O)c(C)c1 (stereo not shown) [Compound A-11]	90%	100%	100%	100%	68%	95%	88%	100%	70%	70%	100%	3%	55%	8%	100%	100%	–	–	–	–
CC#Cc1cc(C)c(C2=C(O)CC(Cc3ccc(C#N)cn3)C2=O)c(C)c1 (stereo not shown) [Compound A-14]	90%	90%	100%	100%	88%	100%	97%	90%	0%	50%	90%	30%	80%	78%	90%	60%	–	–	–	–
CC#Cc1cc(C)c(C2C(=O)CC(Cc3ccn(C)n3)C2=O)c(C)c1 (stereo not shown) [Compound A-19]	100%	100%	100%	100%	100%	100%	100%	100%	90%	100%	100%	65%	89%	75%	–	–	98%	70%	40%	58%
